The text below walks through data of ChEMBL document CHEMBL3272007, “Antiarrhythmics. 2. Synthesis and antiarrhythmic activity of N-(piperidylalkyl)trifluoroethoxybenzamides” (1977).

This test deals with Mus musculus. The test can be described thus: Antiarrhythmic activity in po dosed Swiss-Webster mouse assessed as protection against chloroform-induced ventricular fibrillation administered in 4% acacia. Particulars: Heart. The test is classed as functional.

For the compound `CC[N+]1(C)CCCCC1CNC(=O)c1cc(OCC(F)(F)F)ccc1OCC(F)(F)F` (centres undefined), the median effective dose (ED50) was above 380 µmol/kg.
Regarding `O=C(c1cc(OCC(F)(F)F)ccc1OCC(F)(F)F)N1CCN2CCCCC2C1` (centres undefined), the ED50 was above 510 µmol/kg.
On to `CCN1CCCC1CNC(=O)c1cc(OCC(F)(F)F)ccc1OCC(F)(F)F` (centres undefined), for which the 50% effective dose (ED50) worked out at 70 µmol/kg.
`O=C(NCC1CCCCN1)c1ccc(OCC(F)(F)F)cc1OCC(F)(F)F` (centres undefined): the 50% effective dose (ED50) came to 244 µmol/kg.
For `O=C(NCC1CCCCN1)c1ccc(OCC(F)(F)F)cc1` (centres undefined), the ED50 was 190 µmol/kg.
Regarding `CCN(CC)CCNC(=O)c1ccc(N)cc1` [PROCAINAMIDE], the ED50 was found to be 1030 µmol/kg.
Regarding `CCCCN(CC1CCCCN1)C(=O)c1cc(OCC(F)(F)F)ccc1OCC(F)(F)F` (centres undefined), the ED50 turned out to be 32 µmol/kg.
As for `C=C[C@H]1CN2CC[C@H]1C[C@@H]2[C@@H](O)c1ccnc2ccc(OC)cc12` [QUINIDINE], the ED50 is 217 µmol/kg.
With `CN(CC1CCCCN1)C(=O)c1cc(OCC(F)(F)F)ccc1OCC(F)(F)F` (centres undefined), the ED50 worked out at 24 µmol/kg.
As for `CCN(CC1CCCN1C)C(=O)c1cc(OCC(F)(F)F)ccc1OCC(F)(F)F` (centres undefined), the figure is 29 µmol/kg.
As to `O=C(NCC1CCCCN1)c1cccc(OCC(F)(F)F)c1OCC(F)(F)F` (centres undefined), the median effective dose (ED50) stood at 149 µmol/kg.
As for `O=C(NC1CCCNC1)c1cc(OCC(F)(F)F)ccc1OCC(F)(F)F` (centres undefined), the figure is 57 µmol/kg.
For the compound `O=C(NCC1CCc2ccccc2N1)c1cc(OCC(F)(F)F)ccc1OCC(F)(F)F` (centres undefined), the median effective dose (ED50) was above 450 µmol/kg.
Consider `O=C(NCC1CCCCN1)c1ccc(OCC(F)(F)F)c(OCC(F)(F)F)c1` (centres undefined), for which the ED50 turned out to be 277 µmol/kg.
For `CCN(CC1CCCCN1)C(=O)c1cc(OCC(F)(F)F)ccc1OCC(F)(F)F` (centres undefined) the value was below 2 µmol/kg; for `CCN(CC)CC(=O)Nc1c(C)cccc1C` [LIDOCAINE], 495 µmol/kg.
Consider `O=C(c1cc(OCC(F)(F)F)ccc1OCC(F)(F)F)N(CC1CCCCN1)C1CCCCC1` (centres undefined), for which the median effective dose (ED50) worked out at 36 µmol/kg.
As for `O=C(NCC1CCCNC1)c1cc(OCC(F)(F)F)ccc1OCC(F)(F)F` (centres undefined), the figure is 82 µmol/kg; as for `O=CN1CCCCC1CNC(=O)c1cc(OCC(F)(F)F)ccc1OCC(F)(F)F` (centres undefined), above 510 µmol/kg; as for `O=C(NCC1CCCCN1)c1cc(OCC(F)(F)F)ccc1OCC(F)(F)F` (centres undefined) [FLECAINIDE ACETATE], 48 µmol/kg.
As for `O=C(NCC1CCCCN1)c1cccc(OCC(F)(F)F)c1` (centres undefined), the ED50 was 76 µmol/kg.
Regarding `CC(NC(=O)c1cc(OCC(F)(F)F)ccc1OCC(F)(F)F)C1CCCCN1` (centres undefined), the ED50 stood at 19 µmol/kg.
As for `O=C(NCC1NCCc2ccccc21)c1cc(OCC(F)(F)F)ccc1OCC(F)(F)F` (centres undefined), the figure is 380 µmol/kg; as for `O=C(NCC1CCCCN1)c1cc(OCC(F)(F)F)cc(OCC(F)(F)F)c1` (centres undefined), 388 µmol/kg.
In the case of `CCN1CCCCC1CNC(=O)c1cc(OCC(F)(F)F)ccc1OCC(F)(F)F` (centres undefined), the ED50 amounted to 102 µmol/kg.
For `O=C(NCC1CCCCN1)c1c(OCC(F)(F)F)cccc1OCC(F)(F)F` (centres undefined), the ED50 turned out to be 271 µmol/kg.
As for `O=C(NCC1CCC2CCCCC2N1)c1cc(OCC(F)(F)F)ccc1OCC(F)(F)F` (centres undefined), the ED50 amounted to 27 µmol/kg.
For `CC1CCCC(CN(C)C(=O)c2cc(OCC(F)(F)F)ccc2OCC(F)(F)F)N1` (centres undefined) the value was 9 µmol/kg.
Regarding `O=C(NCC1CCNCC1)c1cc(OCC(F)(F)F)ccc1OCC(F)(F)F`, the ED50 came out at 149 µmol/kg.
In the case of `CN1CCCCC1CNC(=O)c1cc(OCC(F)(F)F)ccc1OCC(F)(F)F` (centres undefined), the median effective dose (ED50) worked out at 44 µmol/kg.
Regarding `O=C(NCC1CCCCN1)c1ccccc1OCC(F)(F)F` (centres undefined), the 50% effective dose (ED50) stood at 283 µmol/kg.
As for `O=C(NC1CCNCC1)c1cc(OCC(F)(F)F)ccc1OCC(F)(F)F`, the 50% effective dose (ED50) was determined as 144 µmol/kg.
`C[N+]1(C)CCCCC1CNC(=O)c1cc(OCC(F)(F)F)ccc1OCC(F)(F)F` (centres undefined): the ED50 was above 395 µmol/kg.
Regarding `O=C(NCC1CCCCN1)c1cc(Cl)ccc1OCC(F)(F)F` (centres undefined), the median effective dose (ED50) was 230 µmol/kg.
For the compound `O=C(NCC1CCCCN1)c1cc(F)ccc1OCC(F)(F)F` (centres undefined), the ED50 is 270 µmol/kg.
For `O=C(NCC1CCCCN1)c1c(OCC(F)(F)F)cc(OCC(F)(F)F)cc1OCC(F)(F)F` (centres undefined) the value was 95 µmol/kg; for `Cc1ccc(OCC(F)(F)F)c(C(=O)NCC2CCCCN2)c1` (centres undefined), above 600 µmol/kg; for `CC1CCCC(CNC(=O)c2cc(OCC(F)(F)F)ccc2OCC(F)(F)F)N1` (centres undefined), 22 µmol/kg.
For the compound `CC(C)(C)N(CC1CCCCN1)C(=O)c1cc(OCC(F)(F)F)ccc1OCC(F)(F)F` (centres undefined), the ED50 came to 17 µmol/kg.

The ED50 is the dose at which the effect has come halfway, by size or by number of responders.
